Consider one compound from paper PMC2811193, “Complementary Roles in Cancer Prevention: Protease Inhibitor Makes the Cancer Preventive Peptide Lunasin Bioavailable” (PLoS ONE, 2010).

In data set [1] the test system is DMBA-induced NIH3T3 cells. Description: Foci formation assay in DMBA-induced NIH3T3 cells. Type of data set: cell-based. On the procedure: The foci formation assay was performed according to Reznikoff et al. NIH3T3 cells were obtained from American Type Culture Collection (ATCC) and cultured in RPMI 1640 medium supplemented with 10% fetal bovine serum (FBS) (Invitrogen, Carlsbad, CA, USA). Cells were plated at a density of 500 cells/well in 12-well plates, incubated overnight at 37°C and treated with lunasin or BBI for 4 hrs. Then, cells were treated with 1.5 µg/ml DMBA for 20 hrs. After washing with PBS, fresh medium was added. Peptides were added and medium was changed every week for 6 weeks. At the end of experiment, cells were washed with 0.9% NaCl, fixed with methanol, stained with Giemsa, and scored for transformed foci. The negative control was a set of cells receiving no DMBA, while the positive control consisted of cells induced by DMBA but without treatment.

For data set [2], the system named is Pancreatin from porcine pancreas. Description: In vitro digestion of lunasin with pancreatin, with or without protease inhibitors. Type of data set: in vitro ADME. The note with it: pre-incubation with inhibitor 30 min at 25°C, pancreatin 1 h at 37°C, Western-Blot band intensity. On the procedure:
(§1) Figure 2 Soy-derived BBI and KTI protect synthetic lunasin from in vitro digestion. The upper, lighter bands are Coomassie Blue protein stains and the lower, darker bands are Western blots. (M) Markers, (1) Lunasin (600 ng) + pancreatin (600 ng) incubated for 0 h at 37°C, (2) Lunasin (600 ng) + pancreatin (600 ng) incubated for 1 h at 37°C, (3) Lunasin (600 ng) + BBI (18,000 ng, unboiled) + pancreatin (600 ng) incubated for 1 h at 37°C, (4). Lunasin (600 ng) + KTI (18,000 ng, unboiled) + pancreatin (600 ng) incubated for 1 h at 37°C, (5) Lunasin (600 ng) + BBI (18,000 ng, boiled) + pancreatin (600 ng) incubated for 1 h at 37°C, (6) Lunasin (600 ng)+KTI (18,000 ng, boiled) + pancreatin (600 ng) incubated for 1 h at 37°C, (7) BBI (unboiled), (8) KTI (unboiled).
(§2) In vitro digestion of lunasin was carried out following the method published in the United States Pharmacopeia. Synthetic lunasin (American Peptide Company, Inc. Sunnyvale, CA, USA) (5 µg) was incubated with the protease inhibitors BBI or KTI (Sigma, St. Louis, MO, USA) for 30 min at 25°C. Pancreatin from porcine pancreas (Sigma) was added (enzyme∶protein ratio of 1∶10) and solution was incubated at 37°C for 1 h. Tris-tricine sample buffer was added at the end of the reaction and immediately stopped by placing the tubes in a boiling water bath for 5 min. The digests were analyzed by SDS-PAGE and Western-Blot following the protocol previously described.

The next data set concerns pancreatin. The data set is described as above. Type of data set: in vitro ADME, porcine. The note with it: pig, pancreatin from porcine pancreas; in the presence of boiled KTI; pre-incubation with inhibitor 30 min at 25°C; pancreatin 1 h at 37°C; Western-Blot band intensity; read-out: lunasin remaining intact after digestion with pancreatin. As for the experimental part: as §1, §2

A short description of data set [3]: Lunasin in blood and liver of rats fed LES diet for 4 weeks. The data set is classed as in vivo. The note with it: female, Sprague-Dawley, rat, po, 0.25 % of the diet, rats fed dietary LES for 4 weeks. The text has this: Sprague-Dawley Rats (Female, 5-weeks old) were purchased from Central Laboratory Animal Inc. (Korea), and experiments were done according with guidelines of the Animal Center at Andong National University (Andong, Korea). Five rats were fed ad libitum with LES and potato starch (0.25% of the diet) for 4 weeks, and then sacrificed. Livers and serum were collected and freeze-dried immediately. One gram of the freeze-dried tissues was extracted with 0.1 M PBS (pH 7.0) (buffer∶tissue ratio (v/w) = 1∶3) at 4°C for 24 hrs, and then centrifuged at 15000 rpm for 1 h. The supernatant protein was further purified by ion exchange chromatography on Biogel resin AG 1-X4 (BioRad), as described by Jeong et al.. Lunasin was further purified by injecting 20 µl of filtrate into the HPLC system equipped with a C18 column (Proteo 90A, Phenomenex Co., Torrance, CA, USA) equilibrated at ambient temperature and an UV detector (295 nm) stabilized with the mobile phase (acetonitrile∶water = 4∶6), at a flow rate of 2.5 ml/min for 15 min. Lunasin was identified by comparison with the retention time of standard synthetic lunasin peak. The lunasin fraction was collected, freeze dried and analyzed by SDS-PAGE and Western-Blot as described above.
Supplementary file pone.0008890.s002.tif: Figure S2 Lunasin was extracted from blood and liver of rats fed control and lunasin-enriched soy (LES) diets for four weeks. […]

What is called amount remaining is what is left of the initial amount, in per cent. Regarding `CC[C@H](C)[C@H](NC(=O)[C@H](CCCCN)NC(=O)[C@H](CCC(=O)O)NC(=O)[C@H](CCSC)NC(=O)[C@@H](NC(=O)[C@H](Cc1c[nH]cn1)NC(=O)[C@H](CCCCN)NC(=O)[C@H](CCC(=O)O)NC(=O)[C@H](CS)NC(=O)[C@@H]1CCCN1C(=O)[C@@H](NC(=O)[C@H](CC(C)C)NC(=O)[C@H](CC(N)=O)NC(=O)[C@@H](NC(=O)CNC(=O)[C@H](CCC(N)=O)NC(=O)[C@H](CC(C)C)NC(=O)[C@H](CCC(N)=O)NC(=O)[C@H](CCCCN)NC(=O)[C@H](CCCNC(=N)N)NC(=O)[C@H](CS)NC(=O)[C@H](CO)NC(=O)[C@H](CC(=O)O)NC(=O)[C@H](CCC(N)=O)NC(=O)[C@H](CCC(N)=O)NC(=O)[C@H](Cc1c[nH]cn1)NC(=O)[C@H](CCC(N)=O)NC(=O)[C@H](Cc1c[nH]c2ccccc12)NC(=O)[C@H](CCCCN)NC(=O)[C@@H](N)CO)C(C)C)[C@@H](C)O)[C@@H](C)CC)C(=O)N[C@@H](CCC(N)=O)C(=O)NCC(=O)N[C@@H](CCCNC(=N)N)C(=O)NCC(=O)N[C@@H](CC(=O)O)C(=O)N[C@@H](CC(=O)O)C(=O)N[C@@H](CC(=O)O)C(=O)N[C@@H](CC(=O)O)C(=O)N[C@@H](CC(=O)O)C(=O)N[C@@H](CC(=O)O)C(=O)N[C@@H](CC(=O)O)C(=O)N[C@@H](CC(=O)O)C(=O)N[C@@H](CC(=O)O)C(=O)O` [lunasin], the “lunasin more effective than BBI in foci formation inhibition on an equimolar basis” value in data set [1] (100 nM each) stood at 18%. For the same compound, the “reduction of foci formation” value in data set [1] (100 nM peptide, 1.5 µg/ml DMBA, 6 weeks, n = 6) was 73%. Moreover, in data set [1] (1 µM lunasin extracted from the liver of LES-fed rats, n = 6), the “suppression of foci formation” value was “as effectively as an equimolar amount of synthetic lunasin”. Also, the entries for the “lunasin remaining intact after digestion with pancreatin” value in data set [2] (in the presence of boiled BBI), in data set [2] (in the presence of unboiled BBI) and in data set [2] (in the presence of unboiled KTI) were 98%, “Approximately 93%” and roughly 97%, respectively. In addition, the amount remaining at 1 h in the data set with pancreatin stood at 84%. In data set [3] (blood, present as a monomer, Western-blot after anion exchange-HPLC purification, read-out: lunasin concentration in blood), the level at 672 h was 0.0175 µg/mL. In addition, in data set [3] (liver, exists as a dimer, Western-blot, read-out: lunasin concentration in liver), the tissue level at time at 672 h is 3100 ng/g.
